“Also recorded” adds a separate entry of the source.
Tests used:
ZR75-1 (ER+AR+) cells [1] = assay: Tumor cell proliferation, ZR75-1; assay type: cell-based, human; details: 10 μM; 48 or 72 hours; P<0.05 vs vehicle
Protocol: (§1) At the indicated time points, cells were harvested and the number of viable cells was determined by trypan blue exclusion.

[2] = system: PC-3 (AR−, HLA-A24) cells; assay: Cell proliferation and viability by trypan blue exclusion, PC-3; assay type: cell-based, human; details: 10 μM
Protocol: Cells were harvested 24, 48, or 72 h after exposure, and the total number of adherent viable cells was determined by trypan blue exclusion. Viability was confirmed by 7AAD staining.

LNCaP/AR(cs) cells [3] = assay: CEA- or PSA-specific CD8+ T-cell killing, LNCaP/AR(cs) targets; assay type: cell-based, human
BT549 (ER−AR+) cells [4] = assay: CEA-specific CTL lysis assay, BT549 targets; assay type: cell-based, human; details: 10 μM, E:T 30:1, vs vehicle, P<0.01
Protocol: (§2) The HLA-A2-restricted CEA-specific CTL recognizes the CEA peptide epitope […] (SEQ ID NO: 1) (CAP-1). […] The percentage of tumor lysis was calculated as follows: % tumor lysis=[(experimental cpm−spontaneous cpm)/(maximum cpm−spontaneous cpm)]×100.

MDA MB 231 cells = details: 10 μM, 48 hours
Protocol: After 48 hours, cells were harvested and stained with the following antibodies: HLA A2-PE-Cy7, MUC-1-FITC, CD54-BV421, CD95-FITC (BD Biosciences, San Jose, Calif.), CEA-APC (Miltenyi Biotec, Auburn, Calif.), TRAIL receptor 1 and TRAIL receptor 2 (R & D Systems, Minneapolis, Minn.). LIVE/DEAD Fixable Violet Dead Cell Stain (Life Technologies, Grand Island, N.Y.) was used to determine cell viability. Cells were incubated with the antibodies for 30 min at 4° C., acquired on a FACS Verse flow cytometer (Becton Dickinson, Franklin Lakes, N.J.), and analyzed using FlowJo software (TreeStar, Inc., Ashland, Oreg.).

prostate cancer = details: reported clinical trials; cited from earlier work
ZR75-1 (ER+AR+) cells [5] = assay: CEA-specific CTL lysis assay, ZR75-1 targets; assay type: cell-based, human; details: 10 μM, E:T 30:1, vs vehicle
Protocol: as §2
(§3) These cells were then used as target cells for CTL-mediated killing assays utilizing CEA-specific CTLs.

LNCaP/AR(cs) cells [6] = assay: Cell proliferation and viability, LNCaP/AR(cs); assay type: cell-based, human
NAIP = NAIP immunohistochemistry in PC-3 xenografts in nude mice; assay type: in vivo; details: 10 mg/day, 7 days
From the text: To examine the reduced expression of NAIP in vivo, either LNCaP or PC-3 cells were transplanted into […] nude mice (Charles River, Wilmington, Mass.) (s.c. in the right flank with 5×10^6 LNCaP or PC-3 prostate tumor cells). […] After 7 days of treatment, tumors were subjected to immunohistochemistry staining to detect the presence and intensity of NAIP expression. Specifically, NAIP expression was detected via immunohistochemistry using a rabbit polyclonal antibody to NAIP (Novus Bio, Littleton, Colo.) according to the manufacturer's instructions. Entire slides were digitally scanned by an Aperio ScanScope CS system and analyzed by Aperio ImageScope Viewer software (Aperio Technologies Inc., Vista, Calif.). Statistical analysis was performed using 3-7 murine tumors, each prepared as a complete stained tumor section. Positive tumor regions were determined using the Positive Pixel Count v9 algorithm. Negative controls included omission of primary antibody with PBS and matched rabbit isotype antibody. In all cases, necrotic areas of tumor were excluded from analysis.

BT549 (ER−AR+) cells [7] = assay: Tumor cell proliferation, BT549; assay type: cell-based, human; details: 10 μM; 48 or 72 hours; P<0.01 vs vehicle; to a greater degree than ZR75-1
Protocol: as §1

[8] = system: MDA MB 231 (ER−AR−) cells; assay: TRAIL-mediated lysis assay, MDA MB 231 targets; assay type: cell-based, human; details: 10 μM, 500 ng/ml KillerTRAIL, P<0.01
Protocol: as §2
(§4) OPG expression was inhibited in MDA MB 231 cells using siRNA duplexes targeting OPG sequences and control siRNA duplexes (Origene, Rockville, Md.). MDA-MB-231 cells were transfected with OPG or control siRNA according to the manufacturer's instructions. […] Forty-eight hours post siRNA transfection, the MDA MB 231 cells were also used as target cells in CEA-specific CTL and TRAIL-mediated lysis assays as described.

PSA = assay: RT-PCR of PSA mRNA in LNCaP cells; assay type: cell-based, human; details: 10 μM, 48 hours, P<0.0001
[9] = system: LNCaP AR-shRNA (AR−, HLA-A2) cells; details: 10 μM
[10] = system: castration resistant prostate cancer; details: AFFIRM trial (Scher et al. 2012); cited from earlier work
PC-3 cells = assay: MUC1-specific CTL lysis assay, PC-3 targets; assay type: cell-based, human; details: 10 μM, 48 hours, E:T 30:1, vs vehicle
Protocol: (§5) At specific time points, cells were harvested and counted. Equal numbers of effector target cells from all treatment were plated with respective cytotoxic T-cells.

[11] = system: murine prostate carcinomas; details: cited from earlier work
[12] = system: MDA MB 231 (ER−AR−) cells; assay: CEA-specific CTL lysis assay, MDA MB 231 targets; assay type: cell-based, human; details: 10 μM, E:T 30:1, vs vehicle
Protocol: as §2, §4, §3

[13] = system: TRAMP-C2 mouse prostate carcinomas; details: in vitro (Ardiani et al. 2013); cited from earlier work
LNCaP cells = assay: MUC1-specific CTL lysis assay, LNCaP targets; assay type: cell-based, human; details: 10 μM, 48 hours, E:T 30:1, vs vehicle
Protocol: as §5

enzalutamide
proliferation of ZR75-1 cells (ZR75-1 (ER+AR+) cells [1]): significantly inhibited the proliferation
viability of PC-3 cells ([2]; trypan blue exclusion after 3 days of drug exposure): Neither enzalutamide nor abiraterone affected the viability
proliferation of PC-3 cells ([2]; vs vehicle (DMSO)): did not inhibit the proliferation
sensitivity to T-cell killing (LNCaP/AR(cs) cells [3]; 10 μM, CEA- or PSA-specific CD8+ T-cells, P<0.01): significantly improved the cells' sensitivity
sensitivity to T-cell killing (LNCaP/AR(cs) cells [3]; 30 μM, P<0.01, no significant difference to 10 μM): significantly improved the cells' sensitivity
sensitivity to CEA-specific CTL-mediated lysis (BT549 (ER−AR+) cells [4]): significantly improved their sensitivity
cell-surface markers with increased expression (MDA MB 231 cells; MDA MB 231 (ER−AR−)): upregulated CEA, ICAM-1 and Trail receptors 1/2
CEA mean fluorescence intensity (MDA MB 231 cells; MDA MB 231): 626
CEA percent positivity (MDA MB 231 cells; MDA MB 231): 9.7%
Fas mean fluorescence intensity (MDA MB 231 cells; MDA MB 231): 375
Fas percent positivity (MDA MB 231 cells; MDA MB 231): 9.0%
HLA A2 mean fluorescence intensity (MDA MB 231 cells; MDA MB 231): 21175
HLA A2 percent positivity (MDA MB 231 cells; MDA MB 231): 96.4%
ICAM-1 mean fluorescence intensity (MDA MB 231 cells; MDA MB 231): 7254
ICAM-1 percent positivity (MDA MB 231 cells; MDA MB 231): 95.3%
MUC-1 mean fluorescence intensity (MDA MB 231 cells; MDA MB 231): 503
Trail R1 mean fluorescence intensity (MDA MB 231 cells; MDA MB 231): 1125
Trail R1 percent positivity (MDA MB 231 cells; MDA MB 231): 19.2%
Trail R2 mean fluorescence intensity (MDA MB 231 cells; MDA MB 231): 1516
prostate cancer patients who did not respond and continued to have rising PSA levels (prostate cancer): more than 30%
sensitivity to CEA-specific CTL-mediated lysis (ZR75-1 (ER+AR+) cells [5]): significantly enhanced their sensitivity
proliferation of LNCaP/AR(cs) cells (LNCaP/AR(cs) cells [6]; 10 μM): did not inhibit the proliferation
inhibition of growth of LNCaP/AR(cs) cells (LNCaP/AR(cs) cells [6]; 30 μM): 50%
viability of LNCaP/AR(cs) cells (LNCaP/AR(cs) cells [6]; 30 μM): no effect on the cells' viability
NAIP expression in PC-3 tumors vs untreated (NAIP): did not mediate significant changes in NAIP expression
proliferation of BT549 cells (BT549 (ER−AR+) cells [7]): significantly inhibited the proliferation
sensitivity to Trail-mediated lysis [8]: significantly improved the sensitivity
reduction in levels of PSA mRNA (PSA): 5.5 fold
growth of LNCaP AR-shRNA [9]: did not affect the growth
advantage in overall survival compared to placebo [10]: 4.8 month
sensitivity to MUC1-specific CTL-mediated lysis (PC-3 cells): neither enzalutamide nor abiraterone improved PC-3 cells' sensitivity; also recorded: did not improve the sensitivity
number or function of T-cells ([11]; Ardiani et al. 2013): did not alter the number or function of T-cells
MHC-I and Fas on the surface of tumor cells ([11]; murine prostate carcinomas (Ardiani et al. 2013)): up-regulated MHC-I and Fas
sensitivity to CEA-specific CTL-mediated lysis [12]: capable of increasing the sensitivity
sensitivity to gp70-specific CTL killing [13]: improve tumor cells' sensitivity
sensitivity to MUC1-specific CTL-mediated lysis (LNCaP cells): significantly enhanced their sensitivity

Reference: patent US20170306042A1, “IMMUNOGENIC MODULATION BY ENDOCRINE DEPRIVATION THERAPY IMPROVES SENSITIVITY OF TUMOR CELLS TO IMMUNE MEDIATED LYSIS” (The United States of America, as represented by the …, priority 2014, published 2017)
